Our source for the IC50 and Ratio IC50 values is ChEMBL document CHEMBL4325932, “Adaptable Small Ligand of CYP1 Enzymes for Use in Understanding the Structural Features Determining Isoform Selectivity” (ACS Med Chem Lett, 2018).

What all share (type): cell membranes
The target in one test is T1, Cytochrome P450 1B1 (Homo sapiens, UniProt Q16678).
T1 sequence (Q16678 whole entry): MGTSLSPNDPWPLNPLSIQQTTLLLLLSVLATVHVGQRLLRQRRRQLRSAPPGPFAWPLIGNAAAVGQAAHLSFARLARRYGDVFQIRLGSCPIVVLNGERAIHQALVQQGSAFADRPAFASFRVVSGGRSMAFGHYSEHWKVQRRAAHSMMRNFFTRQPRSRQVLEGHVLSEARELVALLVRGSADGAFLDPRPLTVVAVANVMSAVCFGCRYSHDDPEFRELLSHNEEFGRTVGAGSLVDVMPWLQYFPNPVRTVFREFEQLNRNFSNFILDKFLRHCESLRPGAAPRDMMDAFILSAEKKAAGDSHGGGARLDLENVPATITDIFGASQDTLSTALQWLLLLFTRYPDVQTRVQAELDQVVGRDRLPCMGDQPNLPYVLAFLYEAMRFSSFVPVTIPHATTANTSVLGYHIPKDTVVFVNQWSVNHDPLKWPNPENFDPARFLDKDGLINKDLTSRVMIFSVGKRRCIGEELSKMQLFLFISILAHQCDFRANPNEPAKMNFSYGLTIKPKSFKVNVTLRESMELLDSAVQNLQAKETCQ
Kind of test: Inhibition of recombinant human CYP1B1 expressed in Escherichia coli membranes co-expressing NADPH-P450 reductase assessed as reduction in ethoxyresorufin O-de-ethylation preincubated for 3 mins followed by NADPH addition and measured after 10 mins by fluorometric method.

Test [1] is filed under the species Homo sapiens. Kind of test: Selectivity ratio of IC50 for recombinant human CYP1A2 expressed in Escherichia coli membranes to IC50 for recombinant human CYP1B1 expressed in Escherichia coli membranes.
A further test concerns the target T2, Cytochrome P450 1A2 (Homo sapiens, UniProt P05177).
T2 sequence (P05177 whole entry): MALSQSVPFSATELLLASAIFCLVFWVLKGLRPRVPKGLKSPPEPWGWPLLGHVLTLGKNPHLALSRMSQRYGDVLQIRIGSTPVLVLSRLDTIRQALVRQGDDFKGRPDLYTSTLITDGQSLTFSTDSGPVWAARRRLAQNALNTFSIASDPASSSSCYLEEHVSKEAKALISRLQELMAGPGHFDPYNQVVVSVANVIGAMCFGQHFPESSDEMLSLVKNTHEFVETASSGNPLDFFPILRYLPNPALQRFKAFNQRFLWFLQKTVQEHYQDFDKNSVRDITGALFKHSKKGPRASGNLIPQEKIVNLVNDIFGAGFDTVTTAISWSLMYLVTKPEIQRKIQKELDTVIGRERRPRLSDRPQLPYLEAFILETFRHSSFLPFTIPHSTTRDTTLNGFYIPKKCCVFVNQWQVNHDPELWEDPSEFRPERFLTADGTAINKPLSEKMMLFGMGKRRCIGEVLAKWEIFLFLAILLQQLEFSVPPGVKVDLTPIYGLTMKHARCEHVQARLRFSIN
The test is described as follows: Inhibition of recombinant human CYP1A2 expressed in Escherichia coli membranes co-expressing NADPH-P450 reductase assessed as reduction in ethoxyresorufin O-de-ethylation preincubated for 3 mins followed by NADPH addition and measured after 10 mins by fluorometric method.

For test [2], the species on record is Homo sapiens. The test is described as follows: Selectivity ratio of IC50 for recombinant human CYP1A1 expressed in Escherichia coli membranes to IC50 for recombinant human CYP1A2 expressed in Escherichia coli membranes.
The species named for test [3] is Homo sapiens. The test is described as follows: Selectivity ratio of IC50 for recombinant human CYP1A1 expressed in Escherichia coli membranes to IC50 for recombinant human CYP1B1 expressed in Escherichia coli membranes.
Another test addresses T3, Cytochrome P450 1A1 (Homo sapiens, UniProt P04798).
T3 sequence (P04798 whole entry): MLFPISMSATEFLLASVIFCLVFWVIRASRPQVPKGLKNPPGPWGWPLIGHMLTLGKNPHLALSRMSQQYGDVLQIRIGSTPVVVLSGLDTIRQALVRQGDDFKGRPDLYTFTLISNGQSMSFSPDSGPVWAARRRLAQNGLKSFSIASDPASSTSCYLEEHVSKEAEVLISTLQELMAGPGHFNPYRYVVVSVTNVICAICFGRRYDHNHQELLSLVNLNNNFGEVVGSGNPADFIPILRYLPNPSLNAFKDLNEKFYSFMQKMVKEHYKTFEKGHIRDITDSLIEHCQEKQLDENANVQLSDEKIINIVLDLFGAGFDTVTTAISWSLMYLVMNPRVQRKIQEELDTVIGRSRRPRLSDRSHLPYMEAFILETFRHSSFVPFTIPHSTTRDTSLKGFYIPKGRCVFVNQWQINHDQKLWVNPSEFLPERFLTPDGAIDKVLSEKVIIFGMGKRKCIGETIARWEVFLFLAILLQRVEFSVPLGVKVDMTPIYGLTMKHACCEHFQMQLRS
The test is described as follows: Inhibition of recombinant human CYP1A1 expressed in Escherichia coli membranes co-expressing NADPH-P450 reductase assessed as reduction in ethoxyresorufin O-de-ethylation preincubated for 3 mins followed by NADPH addition and measured after 10 mins by fluorometric method.

Regarding `COc1cc(/C=C/c2cccs2)cc(OCCn2ccnc2)c1`, the IC50 (as a rule, the midpoint of a concentration-inhibition curve) on Cytochrome P450 1B1 was 4 nM; at Cytochrome P450 1A2 it was 1.5 nM; on Cytochrome P450 1A1, 41 nM. Besides, the Ratio IC50 amounted to 0.4 in the test filed under Homo sapiens [1], 27.3 in the test filed under Homo sapiens [2] and 10.3 in the test filed under Homo sapiens [3].
Turning to `O=c1cc(-c2ccccc2)oc2c1ccc1ccccc12` [ALPHA-NAPHTHOFLAVONE], the IC50 on Cytochrome P450 1A1 came out at 55 nM.
As to `COc1cc(/C=C/c2cccs2)cc(OC)c1`, the Ratio IC50 in the test listed under Homo sapiens [1] turned out to be 5.5; in the test filed under Homo sapiens [2] it was 5.5; in the test listed under Homo sapiens [3] it was 30.5.
